The target in one assay is CLK2 kinase (Homo sapiens, UniProt P49760). Briefly: CLK2 kinase activity assay (Z-lyte FRET).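 Note: FRET read-out as coumarin to fluorescein emission ratio, unphosphorylated peptide as 0% and phosphorylated peptide as 100% controls, duplicate reactions, non-linear regression fit of dose-response curves.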 As to conditions: Z-lyte Ser/Thr 6 peptide, 60 μM ATP, 1 h at room temperature. Type of assay: biochemical.
A further assay deals with CLK3 kinase (Homo sapiens, UniProt P49761). Briefly: CLK3 kinase activity assay (Z-lyte FRET).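 Note: kinase activity read as coumarin/fluorescein emission ratio by FRET, unphosphorylated peptide as 0% and phosphorylated peptide as 100% control, values from non-linear regression of dose-response curves.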 Type of assay: biochemical. As to conditions: Z-lyte Ser/Thr 18 peptide, 156 μM ATP, 1 h at room temperature.
Sequence of CLK3 kinase (P49761 whole entry): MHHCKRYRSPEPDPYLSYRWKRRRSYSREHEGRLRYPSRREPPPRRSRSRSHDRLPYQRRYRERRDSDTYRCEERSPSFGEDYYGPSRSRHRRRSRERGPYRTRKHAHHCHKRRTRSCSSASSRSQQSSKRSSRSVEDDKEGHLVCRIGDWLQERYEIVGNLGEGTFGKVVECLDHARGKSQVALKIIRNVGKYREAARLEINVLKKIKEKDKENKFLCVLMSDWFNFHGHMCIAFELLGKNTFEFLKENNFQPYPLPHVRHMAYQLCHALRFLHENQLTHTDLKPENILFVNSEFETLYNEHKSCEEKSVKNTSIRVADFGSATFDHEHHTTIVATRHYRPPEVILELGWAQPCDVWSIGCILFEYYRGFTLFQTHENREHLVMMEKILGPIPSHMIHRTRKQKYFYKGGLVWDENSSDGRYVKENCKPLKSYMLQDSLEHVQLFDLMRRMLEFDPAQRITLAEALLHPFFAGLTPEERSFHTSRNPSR
In assay [1] the test system is primary human mesenchymal stem cells (hMSCs). Briefly: Chondrogenesis screening using primary human mesenchymal stem cells. It counts as cell-based. As to conditions: Homo sapiens, Mesenchymal stem cells, hMSC chondrogenesis; for Emax: maximum activity relative to TGF-β3 (10 ng/mL) positive control, read-out: Max. Activity as % TGF-β3 activity; for EC50: concentration required to induce 50% levels of chondrogenesis with TGF-β3 as positive control, read-out: Conc (nM) of 50% TGF-β3 activity. In outline:
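Derived values are EC50 for 50% chondrogenesis, maximal activity and the dose giving it. These come from nodule area in passage 3–6 primary hMSCs, expressed as fold change over the mean of 3 same-plate DMSO wells, 2–3 replicates per concentration. TGF-β3 served as positive control.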

Assay [2] concerns Wnt pathway activity (SW480 colon carcinoma cells stably expressing the Sp5-Luc reporter). The assay can be described thus: Wnt pathway activity screening assay (Sp5-Luc reporter gene assay). As to conditions: Homo sapiens, SW480, Table 4; SW480 cells stably expressing Sp5-Luc reporter, 10-point dose-response from 10 μM, 36 to 48 hours. On the technique in general: Reporter assays use an easily measured gene product as a stand-in for the process of interest.

Sequence of CLK2 kinase (P49760 whole entry): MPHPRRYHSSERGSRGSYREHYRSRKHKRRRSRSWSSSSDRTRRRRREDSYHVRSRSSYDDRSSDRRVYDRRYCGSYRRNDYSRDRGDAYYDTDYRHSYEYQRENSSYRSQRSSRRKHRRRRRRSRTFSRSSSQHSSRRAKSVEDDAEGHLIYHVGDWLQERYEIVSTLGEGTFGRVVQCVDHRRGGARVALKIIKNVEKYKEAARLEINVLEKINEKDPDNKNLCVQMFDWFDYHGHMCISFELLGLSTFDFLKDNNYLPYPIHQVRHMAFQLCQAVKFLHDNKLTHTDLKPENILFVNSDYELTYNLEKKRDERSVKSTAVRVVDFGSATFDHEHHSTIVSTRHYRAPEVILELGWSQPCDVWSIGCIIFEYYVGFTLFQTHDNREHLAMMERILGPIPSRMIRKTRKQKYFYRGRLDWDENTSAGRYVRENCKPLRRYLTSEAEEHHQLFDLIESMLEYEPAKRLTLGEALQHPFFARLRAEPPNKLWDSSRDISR

Consider `CCNCc1cncc(-c2ccc3[nH]nc(-c4cc5c(-c6cc(F)cc(CNS(C)(=O)=O)c6)cncc5[nH]4)c3c2)c1` [compound 531], for which the EC50 is 5 nM at CLK2 kinase, 52 nM on CLK3 kinase and over 10000 nM in assay [2]. Moreover, the Emax in assay [1] turned out to be 58%.
The corresponding values for `CC(C)C(=O)Nc1cncc(-c2ccc3[nH]nc(-c4cc5c(N6CCN(C)CC6)nccc5[nH]4)c3c2)c1` [compound 475] are 11 nM, 569 nM, 7690 nM and 21%.
`O=C(Nc1cncc(-c2ccc3[nH]nc(-c4nc5c(-c6ccc(Cl)s6)cncc5[nH]4)c3n2)c1)C1CCC1` [compound 268]: the EC50 stood at 12 nM at CLK2 kinase, 145 nM at CLK3 kinase, 30 nM in assay [1] and 800 nM in assay [2]. Further, the Emax in assay [1] was 67.9%.
Turning to `O=C(Nc1cncc(-c2cnc3[nH]nc(-c4cc5c(-c6ccccc6F)cncc5[nH]4)c3c2)c1)C1CC1` [compound 329], the EC50 on CLK2 kinase is 8 nM; at CLK3 kinase, 42 nM; in assay [2] it was 390 nM. In addition, the Emax in assay [1] was 52.1%.
On to `CN1CCN(c2ccnc3[nH]c(-c4n[nH]c5ccc(-c6cncc(N)c6)nc45)nc23)CC1` [compound 216], for which the figures for the EC50 (on CLK2 kinase; on CLK3 kinase; in assay [2]) were 2 nM, 843 nM and over 10000 nM, respectively. Besides, the Emax in assay [1] came out at 46.9%.
The corresponding values for `c1ccc(CNCc2cncc(-c3ccc4[nH]nc(-c5cc6c(-c7cccs7)cncc6[nH]5)c4c3)c2)cc1` [compound 508] are 7 nM, 68 nM, 578 nM and 57.4%.
Take `CCCCC(=O)Nc1cncc(-c2cc3c(-c4cc5c(-c6cc(F)cc(CNS(C)(=O)=O)c6)nccc5[nH]4)n[nH]c3cn2)c1` [compound 521]: the EC50 at CLK2 kinase is 9 nM; on CLK3 kinase it was 776 nM; in assay [1], 10 nM; in assay [2], over 10000 nM. In addition, the Emax in assay [1] came out at 111%.
Turning to `CCC(=O)Nc1cncc(-c2ccc3[nH]nc(-c4nc5c(-c6ccsc6)cncc5[nH]4)c3c2)c1` [compound 244], the EC50 was 16 nM at CLK2 kinase, 64 nM on CLK3 kinase, 30 nM in assay [1] and 2 nM in assay [2]. The Emax in assay [1] was found to be 203%.
`CC(C)Nc1cncc(-c2ccc3[nH]nc(-c4cc5c(-c6cccnc6)ccnc5[nH]4)c3n2)c1` [compound 364]: the figures for the EC50 (on CLK2 kinase; on CLK3 kinase; in assay [2]) were 10 nM, 139 nM and 255 nM, respectively. In addition, in assay [1], the Emax was determined as 47.2%.
The matching figures for `O=C(Nc1cncc(-c2ccc3[nH]nc(-c4cc5c(-c6ccncc6)nccc5[nH]4)c3c2)c1)C1CCCC1` [compound 395]: 5 nM, 30 nM, over 10000 nM and 114%.
Regarding `CCCC(=O)Nc1cncc(-c2cc3c(-c4nc5c(-c6cccc(F)c6)nccc5[nH]4)n[nH]c3cn2)c1` [compound 122], the EC50 on CLK2 kinase was 11 nM; on CLK3 kinase, 6960 nM; in assay [1] it was 10 nM; in assay [2] it was 18.8 nM. The Emax in assay [1] amounted to 67.8%.
Regarding `CC(C)Nc1cncc(-c2cnc3[nH]nc(-c4nc5c(-c6ccoc6)nccc5[nH]4)c3c2)c1` [compound 237], the EC50 on CLK2 kinase is 7 nM; on CLK3 kinase it was 134 nM; in assay [1], 30 nM; in assay [2] it was 52.6 nM. For the same molecule, the Emax in assay [1] stood at 72%.
As to `CC(C)Oc1ccc(NC(=O)c2n[nH]c3ccc(-c4cncc(CN5CCCCC5)c4)cc23)cn1` [compound 82], the EC50 on CLK2 kinase amounted to 13 nM; at CLK3 kinase it was 616 nM; in assay [1], 10 nM; in assay [2] it was 41 nM. Moreover, the Emax in assay [1] was found to be 51.9%.
`Oc1cncc(-c2ccc3[nH]nc(-c4nc5c(-c6cccc(F)c6)ccnc5[nH]4)c3n2)c1` [compound 146]: the EC50 at CLK2 kinase was found to be 5 nM; on CLK3 kinase it was 113 nM; in assay [1], 2.29 nM; in assay [2], 375 nM. Moreover, the Emax in assay [1] amounted to 59.3%.
As to `O=C(Nc1cncc(-c2cnc3[nH]nc(-c4cc5cccnc5[nH]4)c3c2)c1)C1CCCCC1` [compound 432], the EC50 on CLK2 kinase is 17 nM; on CLK3 kinase it was 2970 nM; in assay [2], 1260 nM. Also, the Emax in assay [1] was 28.5%.
`Fc1ccc(-c2cncc3[nH]c(-c4n[nH]c5ncc(-c6cncnc6)cc45)cc23)cc1` [compound 319]: the results for the EC50 (at CLK2 kinase; at CLK3 kinase; in assay [2]) were 6 nM, 817 nM and 594 nM, respectively. In addition, in assay [1], the Emax came to 23.8%.
`COc1cccc(-c2cncc3[nH]c(-c4n[nH]c5ccc(-c6cccnc6)nc45)nc23)c1` [compound 296]: the EC50 was 1 nM at CLK2 kinase, 55 nM at CLK3 kinase, 30 nM in assay [1] and over 10000 nM in assay [2]. Further, the Emax in assay [1] is 59.2%.
For the molecule `Cc1cn(-c2ccnc3[nH]c(-c4n[nH]c5ccc(-c6cncc(NC(=O)C(C)(C)C)c6)nc45)nc23)cn1` [compound 223], the EC50 on CLK2 kinase is 3 nM; on CLK3 kinase, 123 nM; in assay [1] it was 10 nM; in assay [2], over 10000 nM. Moreover, in assay [1], the Emax worked out at 70.2%.
With `CCCCC(=O)Nc1cncc(-c2ccc3[nH]nc(-c4cc5c(-c6ccoc6)cncc5[nH]4)c3c2)c1` [compound 499], the values for the EC50 (at CLK2 kinase; on CLK3 kinase; in assay [2]) were 3 nM, 42 nM and 915 nM, respectively. Moreover, in assay [1], the Emax stood at 122%.
On to `CCC(=O)Nc1cncc(-c2ccc3[nH]nc(-c4cc5c(-c6cccc(F)c6)nccc5[nH]4)c3c2)c1` [compound 302], for which the EC50 is 6 nM at CLK2 kinase, 46 nM at CLK3 kinase and 45 nM in assay [2]. Moreover, the Emax in assay [1] was found to be 16.2%.
For the molecule `CN(C)Cc1cncc(-c2cc3c(-c4cc5c(-c6ccncc6)cncc5[nH]4)n[nH]c3cn2)c1` [compound 399], the EC50 at CLK2 kinase was 4 nM; at CLK3 kinase it was 188 nM; in assay [1], 30 nM; in assay [2], over 10000 nM. In addition, the Emax in assay [1] came to 51.7%.
For `CC(C)Nc1cncc(-c2ccc3[nH]nc(-c4nc5c(-c6ccoc6)nccc5[nH]4)c3n2)c1` [compound 238], the EC50 turned out to be 2 nM at CLK2 kinase, 230 nM at CLK3 kinase, 30 nM in assay [1] and 297 nM in assay [2]. Further, in assay [1], the Emax worked out at 76.2%.
`Cc1ccncc1-c1cnc2[nH]nc(-c3nc4c(-c5cc(F)cc(CNS(C)(=O)=O)c5)nccc4[nH]3)c2c1` [compound 289]: the EC50 on CLK2 kinase was determined as 4 nM; at CLK3 kinase it was 39 nM; in assay [1], 10 nM; in assay [2], 124 nM. Besides, the Emax in assay [1] worked out at 92.8%.
The matching figures for `CCCC(=O)Nc1cncc(-c2cnc3[nH]nc(-c4nc5c(-c6ccoc6)cccc5[nH]4)c3c2)c1` [compound 230]: 4 nM, 87 nM, 100 nM, 63 nM and 111%.
With `CCCC(=O)Nc1cncc(-c2ccc3[nH]nc(-c4nc5c(-c6ccsc6)ccnc5[nH]4)c3c2)c1` [compound 245], the EC50 at CLK2 kinase stood at 34 nM; on CLK3 kinase it was 9840 nM; in assay [1] it was 30 nM; in assay [2], 7.7 nM. Further, in assay [1], the Emax amounted to 72.6%.
Consider `CS(=O)(=O)NCc1cc(F)cc(-c2nccc3[nH]c(-c4n[nH]c5ccc(-c6cncc(CN7CCCCC7)c6)nc45)cc23)c1` [compound 536], for which the EC50 at CLK2 kinase is 5 nM; at CLK3 kinase, 79 nM; in assay [1] it was 10 nM; in assay [2], 1100 nM. Also, the Emax in assay [1] amounted to 50.1%.
With `Fc1cccc(-c2nccc3[nH]c(-c4n[nH]c5ccc(-c6cncc(CN7CCCCC7)c6)nc45)cc23)c1` [compound 312], the figures for the EC50 (at CLK2 kinase; at CLK3 kinase; in assay [2]) were 4 nM, 252 nM and 3750 nM, respectively. Besides, in assay [1], the Emax was determined as 48%.
For `CC(C)Nc1cncc(-c2ccc3[nH]nc(-c4nc5c(-c6ccoc6)nccc5[nH]4)c3c2)c1` [compound 236], the EC50 on CLK2 kinase is 19 nM; at CLK3 kinase it was 205 nM; in assay [1] it was 30 nM; in assay [2], 43.5 nM. Besides, the Emax in assay [1] was 90.2%.
The corresponding values for `CCNCc1cncc(-c2cc3c(-c4nc5c(-c6ccsc6)nccc5[nH]4)n[nH]c3cn2)c1` [compound 249] are 1 nM, 30 nM, 30 nM, 59.3 nM and 67.7%.
The corresponding values for `CN1CCN(c2cncc3[nH]c(-c4n[nH]c5ccc(-c6cncc(N)c6)nc45)nc23)CC1` [compound 215] are 5 nM, 500 nM, 30 nM, over 10000 nM and 64.6%.
The corresponding values for `FC1(F)CCN(Cc2cncc(-c3cnc4[nH]nc(-c5cc6c(-c7ccoc7)cccc6[nH]5)c4c3)c2)C1` [compound 503] are 10 nM, 104 nM, 30 nM, 1000 nM and 72.1%.
